# Measured values reported in the kinase profiling compilation of Christmann-Franck et al. (2016).
# Assays:
# Assay in all cases: radiometric filter-binding kinase assay, Kinase HotSpot
# Conditions in all cases: compound 0.5 µM; ATP 10 µM
# DDR2 (human) = DDR2 (human) (UniProt Q16832)
# RPS6KA3 KD1 KD2 (human) = RPS6KA3 KD1 KD2 (human) (UniProt P51812)
# PIM3 (human) = PIM3 (human) (UniProt Q86V86)
# LIMK1 (human) = LIMK1 (human) (UniProt P53667)
# NTRK1 (human) = NTRK1 (human) (UniProt P04629)
# MAPK8 (human) = MAPK8 (human) (UniProt P45983)
# Sequence of MAPK8 (human) (P45983 whole entry, looked up): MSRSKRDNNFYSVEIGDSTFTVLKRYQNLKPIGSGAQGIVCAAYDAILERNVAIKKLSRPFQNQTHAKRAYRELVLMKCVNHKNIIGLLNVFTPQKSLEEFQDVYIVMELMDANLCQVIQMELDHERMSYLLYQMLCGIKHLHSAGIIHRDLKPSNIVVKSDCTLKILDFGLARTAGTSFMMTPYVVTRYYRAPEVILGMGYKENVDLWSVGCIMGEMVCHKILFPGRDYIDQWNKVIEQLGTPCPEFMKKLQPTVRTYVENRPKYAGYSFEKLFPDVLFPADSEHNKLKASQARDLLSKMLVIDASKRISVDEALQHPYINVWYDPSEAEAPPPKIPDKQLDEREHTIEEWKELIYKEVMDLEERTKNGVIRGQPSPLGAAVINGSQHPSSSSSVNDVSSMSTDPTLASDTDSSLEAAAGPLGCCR
# EPHB3 (human) = EPHB3 (human) (UniProt P54753)
# NEK9 (human) = NEK9 (human) (UniProt Q8TD19)
# PTK2B (human) = PTK2B (human) (UniProt Q14289)
# CDK6 CCND3 (human) = CDK6 CCND3 (human) (UniProt P30281+Q00534)
# Sequence of CDK6 CCND3 (human) (P30281 whole entry, looked up): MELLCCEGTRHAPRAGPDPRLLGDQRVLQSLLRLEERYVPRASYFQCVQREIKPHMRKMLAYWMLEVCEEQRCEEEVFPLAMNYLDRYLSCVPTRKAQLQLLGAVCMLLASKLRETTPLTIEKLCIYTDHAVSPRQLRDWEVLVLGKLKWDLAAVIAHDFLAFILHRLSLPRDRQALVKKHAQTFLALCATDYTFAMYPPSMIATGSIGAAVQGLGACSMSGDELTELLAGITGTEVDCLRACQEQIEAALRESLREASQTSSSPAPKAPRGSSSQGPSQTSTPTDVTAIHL
# Sequence of CDK6 CCND3 (human) (Q00534 whole entry, looked up): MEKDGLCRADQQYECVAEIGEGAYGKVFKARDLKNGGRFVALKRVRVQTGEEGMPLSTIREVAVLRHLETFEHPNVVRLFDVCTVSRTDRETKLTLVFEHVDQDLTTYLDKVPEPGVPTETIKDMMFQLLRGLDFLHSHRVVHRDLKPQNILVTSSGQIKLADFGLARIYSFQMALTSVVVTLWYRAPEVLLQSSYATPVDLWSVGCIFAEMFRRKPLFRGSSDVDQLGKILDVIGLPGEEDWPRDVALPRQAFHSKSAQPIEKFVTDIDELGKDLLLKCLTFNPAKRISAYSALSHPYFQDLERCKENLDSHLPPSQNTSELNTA
# FLT1 (human) = FLT1 (human) (UniProt P17948)
# BTK (human) = BTK (human) (UniProt Q06187)
# MAP3K7 TAB1 (human) = MAP3K7 TAB1 (human) (UniProt O43318+Q15750)
# CAMK4 (human) = CAMK4 (human) (UniProt Q16566)
# TAOK1 (human) = TAOK1 (human) (UniProt Q7L7X3)
# Sequence of TAOK1 (human) (Q7L7X3 whole entry, looked up): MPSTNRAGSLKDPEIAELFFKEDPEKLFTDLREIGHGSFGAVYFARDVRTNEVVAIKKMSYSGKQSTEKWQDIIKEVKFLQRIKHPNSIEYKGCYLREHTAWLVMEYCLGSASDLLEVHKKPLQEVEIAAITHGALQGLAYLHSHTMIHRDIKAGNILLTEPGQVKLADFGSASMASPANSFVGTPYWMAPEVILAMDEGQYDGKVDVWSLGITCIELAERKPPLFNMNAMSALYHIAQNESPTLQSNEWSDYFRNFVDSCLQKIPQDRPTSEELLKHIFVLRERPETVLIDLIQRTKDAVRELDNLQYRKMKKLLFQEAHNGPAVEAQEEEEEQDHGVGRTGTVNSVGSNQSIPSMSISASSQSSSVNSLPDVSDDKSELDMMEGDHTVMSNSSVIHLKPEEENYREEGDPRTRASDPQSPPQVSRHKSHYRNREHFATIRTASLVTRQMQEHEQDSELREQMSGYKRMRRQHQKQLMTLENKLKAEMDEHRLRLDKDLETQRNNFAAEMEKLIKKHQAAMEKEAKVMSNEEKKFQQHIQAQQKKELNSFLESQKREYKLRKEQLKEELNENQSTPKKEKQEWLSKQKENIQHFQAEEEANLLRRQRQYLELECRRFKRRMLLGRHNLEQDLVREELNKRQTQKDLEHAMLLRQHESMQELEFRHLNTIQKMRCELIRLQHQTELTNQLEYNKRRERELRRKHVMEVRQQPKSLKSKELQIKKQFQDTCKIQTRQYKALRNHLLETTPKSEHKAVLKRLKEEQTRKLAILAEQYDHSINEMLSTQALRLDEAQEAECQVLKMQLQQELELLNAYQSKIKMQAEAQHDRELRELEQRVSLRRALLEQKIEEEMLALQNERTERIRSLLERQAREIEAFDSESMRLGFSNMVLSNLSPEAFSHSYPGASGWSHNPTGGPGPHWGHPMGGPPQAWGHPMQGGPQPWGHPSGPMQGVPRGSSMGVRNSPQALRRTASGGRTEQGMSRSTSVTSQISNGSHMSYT
# CAMK2D (human) = CAMK2D (human) (UniProt Q13557)
# CAMK2B (human) = CAMK2B (human) (UniProt Q13554)
# MAP3K14 (human) = MAP3K14 (human) (UniProt Q99558)
# CDK9 CCNK (human) = CDK9 CCNK (human) (UniProt O75909+P50750)
# STK4 (human) = STK4 (human) (UniProt Q13043)
# Sequence of STK4 (human) (Q13043 whole entry, looked up): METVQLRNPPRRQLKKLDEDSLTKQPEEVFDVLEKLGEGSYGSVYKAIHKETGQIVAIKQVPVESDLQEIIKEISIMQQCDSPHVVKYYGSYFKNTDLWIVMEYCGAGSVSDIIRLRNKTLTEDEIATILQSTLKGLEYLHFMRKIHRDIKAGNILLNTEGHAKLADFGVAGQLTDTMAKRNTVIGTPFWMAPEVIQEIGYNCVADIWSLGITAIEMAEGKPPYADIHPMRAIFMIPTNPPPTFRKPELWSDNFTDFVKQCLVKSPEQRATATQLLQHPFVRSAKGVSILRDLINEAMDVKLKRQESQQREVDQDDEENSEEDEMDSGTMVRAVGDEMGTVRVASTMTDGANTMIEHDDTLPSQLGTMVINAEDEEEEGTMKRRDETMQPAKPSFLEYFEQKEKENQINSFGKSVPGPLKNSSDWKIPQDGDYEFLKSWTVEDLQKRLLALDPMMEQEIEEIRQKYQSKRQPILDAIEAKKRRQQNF
# MAPK9 (human) = MAPK9 (human) (UniProt P45984)
# STK33 (human) = STK33 (human) (UniProt Q9BYT3)
# Sequence of STK33 (human) (Q9BYT3 whole entry, looked up): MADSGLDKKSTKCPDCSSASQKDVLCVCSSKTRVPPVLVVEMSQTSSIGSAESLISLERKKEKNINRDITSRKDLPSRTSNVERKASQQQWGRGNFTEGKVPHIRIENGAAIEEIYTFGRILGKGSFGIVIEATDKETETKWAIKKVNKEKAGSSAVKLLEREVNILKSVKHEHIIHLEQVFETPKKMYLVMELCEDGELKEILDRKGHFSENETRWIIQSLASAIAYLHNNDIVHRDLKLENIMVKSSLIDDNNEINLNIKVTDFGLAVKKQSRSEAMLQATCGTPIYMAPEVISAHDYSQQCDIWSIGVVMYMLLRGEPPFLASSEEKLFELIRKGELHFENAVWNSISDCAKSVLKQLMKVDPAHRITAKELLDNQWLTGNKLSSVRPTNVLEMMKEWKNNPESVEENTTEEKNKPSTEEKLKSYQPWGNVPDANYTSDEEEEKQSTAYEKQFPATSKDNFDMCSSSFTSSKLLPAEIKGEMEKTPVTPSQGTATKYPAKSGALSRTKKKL
# CDK5 CDK5R1 p25 (human) = CDK5 CDK5R1 p25 (human) (UniProt Q00535+Q15078)
# SYK (human) = SYK (human) (UniProt P43405)
# STK24 (human) = STK24 (human) (UniProt Q9Y6E0)
# CAMKK1 (human) = CAMKK1 (human) (UniProt Q8N5S9)
# Sequence of CAMKK1 (human) (Q8N5S9 whole entry, looked up): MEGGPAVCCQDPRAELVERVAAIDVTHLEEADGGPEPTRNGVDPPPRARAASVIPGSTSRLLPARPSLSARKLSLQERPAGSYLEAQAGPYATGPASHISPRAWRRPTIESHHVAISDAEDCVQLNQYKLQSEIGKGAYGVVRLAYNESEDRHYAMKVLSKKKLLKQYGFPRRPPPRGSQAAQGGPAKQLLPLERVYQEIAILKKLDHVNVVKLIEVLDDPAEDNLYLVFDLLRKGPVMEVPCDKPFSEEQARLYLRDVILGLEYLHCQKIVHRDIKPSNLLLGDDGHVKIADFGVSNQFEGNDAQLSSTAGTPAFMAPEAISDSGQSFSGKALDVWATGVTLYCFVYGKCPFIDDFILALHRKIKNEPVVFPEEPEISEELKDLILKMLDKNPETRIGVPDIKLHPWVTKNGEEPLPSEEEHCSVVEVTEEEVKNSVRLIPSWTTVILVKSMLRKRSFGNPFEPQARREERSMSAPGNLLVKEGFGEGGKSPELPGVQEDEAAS
# PRKCA (human) = PRKCA (human) (UniProt P17252)
# MAP3K8 (human) = MAP3K8 (human) (UniProt P41279)
# GRK6 (human) = GRK6 (human) (UniProt P43250)
# Sequence of GRK6 (human) (P43250 whole entry, looked up): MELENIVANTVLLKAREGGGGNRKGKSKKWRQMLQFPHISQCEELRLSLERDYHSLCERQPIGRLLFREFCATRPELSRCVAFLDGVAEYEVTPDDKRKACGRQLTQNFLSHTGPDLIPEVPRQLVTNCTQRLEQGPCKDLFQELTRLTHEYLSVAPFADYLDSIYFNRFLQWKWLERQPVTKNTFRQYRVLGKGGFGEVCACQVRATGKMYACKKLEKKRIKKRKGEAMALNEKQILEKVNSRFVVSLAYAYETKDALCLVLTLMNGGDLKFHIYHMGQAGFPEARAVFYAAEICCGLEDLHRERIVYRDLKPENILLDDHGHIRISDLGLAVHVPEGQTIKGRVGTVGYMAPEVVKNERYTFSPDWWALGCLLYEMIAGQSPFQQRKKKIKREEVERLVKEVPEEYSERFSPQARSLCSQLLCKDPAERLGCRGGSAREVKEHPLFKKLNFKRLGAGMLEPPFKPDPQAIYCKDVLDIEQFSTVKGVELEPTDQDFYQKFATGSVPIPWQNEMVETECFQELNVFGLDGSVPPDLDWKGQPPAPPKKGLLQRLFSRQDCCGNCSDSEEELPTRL
# CAMK2A (human) = CAMK2A (human) (UniProt Q9UQM7)
# IRAK4 (human) = IRAK4 (human) (UniProt Q9NWZ3)
# STK39 (human) = STK39 (human) (UniProt Q9UEW8)
# CAMK1 (human) = CAMK1 (human) (UniProt Q14012)
# MLTK (human) = MLTK (human) (UniProt Q9NYL2)
# KDR (human) = KDR (human) (UniProt P35968)
# MAP4K5 (human) = MAP4K5 (human) (UniProt Q9Y4K4)
# Sequence of MAP4K5 (human) (Q9Y4K4 whole entry, looked up): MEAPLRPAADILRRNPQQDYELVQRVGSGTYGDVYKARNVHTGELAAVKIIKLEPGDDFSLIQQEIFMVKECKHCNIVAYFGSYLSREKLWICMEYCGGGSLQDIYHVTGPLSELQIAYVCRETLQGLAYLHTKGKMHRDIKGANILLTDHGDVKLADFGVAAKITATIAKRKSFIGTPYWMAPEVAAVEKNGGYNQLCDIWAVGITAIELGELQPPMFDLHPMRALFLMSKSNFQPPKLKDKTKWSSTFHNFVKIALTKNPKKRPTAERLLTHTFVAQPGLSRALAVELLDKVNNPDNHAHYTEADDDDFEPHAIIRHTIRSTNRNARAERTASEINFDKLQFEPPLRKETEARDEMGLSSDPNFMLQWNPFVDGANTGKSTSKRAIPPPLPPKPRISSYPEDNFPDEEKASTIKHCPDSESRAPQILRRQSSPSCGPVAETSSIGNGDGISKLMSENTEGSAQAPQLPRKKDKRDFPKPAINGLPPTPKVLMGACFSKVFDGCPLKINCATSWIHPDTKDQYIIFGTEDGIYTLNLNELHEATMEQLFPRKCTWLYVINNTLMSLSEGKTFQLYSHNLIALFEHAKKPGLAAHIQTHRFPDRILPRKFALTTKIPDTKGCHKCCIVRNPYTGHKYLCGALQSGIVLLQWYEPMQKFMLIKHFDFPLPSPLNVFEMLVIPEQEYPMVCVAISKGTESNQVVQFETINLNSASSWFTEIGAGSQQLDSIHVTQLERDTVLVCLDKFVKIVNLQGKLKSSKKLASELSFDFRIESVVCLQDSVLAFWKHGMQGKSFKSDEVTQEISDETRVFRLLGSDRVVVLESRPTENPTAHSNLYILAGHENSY
# CDK5 CDK5R1 p35 (human) = CDK5 CDK5R1 p35 (human) (UniProt Q00535+Q15078)
# PDGFRA (human) = PDGFRA (human) (UniProt P16234)
# CLK3 (human) = CLK3 (human) (UniProt P49761)
# MAP2K2 (human) = MAP2K2 (human) (UniProt P36507)
# TTK (human) = TTK (human) (UniProt P33981)
structure (smiles),measurement,setting,value
CCn1cnc2c(Nc3cccc(Cl)c3)nc(N[C@@H]3CCCC[C@@H]3N)nc21,residual activity,DDR2 (human),97.2%
same,residual activity,RPS6KA3 KD1 KD2 (human),64.1%
same,residual activity,PIM3 (human),34.7%
same,residual activity,LIMK1 (human),108%
same,residual activity,NTRK1 (human),92.9%
same,residual activity,MAPK8 (human),97.6%
same,residual activity,EPHB3 (human),92.6%
same,residual activity,NEK9 (human),95.4%
same,residual activity,PTK2B (human),85.7%
same,residual activity,CDK6 CCND3 (human),76.9%
same,residual activity,FLT1 (human),92.8%
same,residual activity,BTK (human),82.5%
same,residual activity,MAP3K7 TAB1 (human),98.9%
same,residual activity,CAMK4 (human),103%
same,residual activity,TAOK1 (human),90.2%
same,residual activity,CAMK2D (human),89%
same,residual activity,CAMK2B (human),110%
same,residual activity,MAP3K14 (human),85.1%
same,residual activity,CDK9 CCNK (human),46.9%
same,residual activity,STK4 (human),91.3%
same,residual activity,MAPK9 (human),102%
same,residual activity,STK33 (human),88.9%
same,residual activity,CDK5 CDK5R1 p25 (human),5.16%
same,residual activity,SYK (human),98.4%
same,residual activity,STK24 (human),79%
same,residual activity,CAMKK1 (human),107%
same,residual activity,PRKCA (human),68.2%
same,residual activity,MAP3K8 (human),93.6%
same,residual activity,GRK6 (human),99.6%
same,residual activity,CAMK2A (human),96.5%
same,residual activity,IRAK4 (human),94.8%
same,residual activity,STK39 (human),106%
same,residual activity,CAMK1 (human),103%
same,residual activity,MLTK (human),104%
same,residual activity,KDR (human),96.5%
same,residual activity,MAP4K5 (human),91.1%
same,residual activity,CDK5 CDK5R1 p35 (human),13.2%
same,residual activity,PDGFRA (human),100%
same,residual activity,CLK3 (human),99.8%
same,residual activity,MAP2K2 (human),107%
same,residual activity,TTK (human),99.7%
CC(=O)O/N=C1\C(=C2\C(=O)Nc3cc(Br)ccc32)Nc2ccccc21,residual activity,DDR2 (human),89.8%
same,residual activity,RPS6KA3 KD1 KD2 (human),91.9%
same,residual activity,PIM3 (human),54.2%
same,residual activity,LIMK1 (human),69.7%
same,residual activity,NTRK1 (human),54.7%
same,residual activity,MAPK8 (human),88.9%
same,residual activity,EPHB3 (human),94.2%
same,residual activity,NEK9 (human),86.7%
same,residual activity,PTK2B (human),85.9%
same,residual activity,CDK6 CCND3 (human),40.9%
same,residual activity,FLT1 (human),98.6%
same,residual activity,BTK (human),27.3%
same,residual activity,MAP3K7 TAB1 (human),97.4%
same,residual activity,CAMK4 (human),86.1%
same,residual activity,TAOK1 (human),126%
same,residual activity,CAMK2D (human),53.8%
same,residual activity,CAMK2B (human),91.5%
same,residual activity,MAP3K14 (human),75.7%
same,residual activity,CDK9 CCNK (human),64.3%
same,residual activity,STK4 (human),54.2%
same,residual activity,MAPK9 (human),90.5%
same,residual activity,STK33 (human),70.3%
same,residual activity,CDK5 CDK5R1 p25 (human),51.4%
same,residual activity,SYK (human),88.3%
same,residual activity,STK24 (human),70.9%
same,residual activity,CAMKK1 (human),72.7%
same,residual activity,PRKCA (human),105%
same,residual activity,MAP3K8 (human),104%
same,residual activity,GRK6 (human),88.5%
same,residual activity,CAMK2A (human),89.2%
same,residual activity,IRAK4 (human),94.1%
same,residual activity,STK39 (human),105%
same,residual activity,CAMK1 (human),102%
same,residual activity,MLTK (human),77%
same,residual activity,KDR (human),74.2%
same,residual activity,MAP4K5 (human),24.1%
same,residual activity,CDK5 CDK5R1 p35 (human),24.7%
same,residual activity,PDGFRA (human),82.9%
same,residual activity,CLK3 (human),75.1%
same,residual activity,MAP2K2 (human),83.1%
same,residual activity,TTK (human),93.9%
COc1cc2ncnc(N3CCN(C(=O)Nc4ccc(Oc5ccccc5)cc4)CC3)c2cc1OC,residual activity,DDR2 (human),95.1%
same,residual activity,RPS6KA3 KD1 KD2 (human),115%
same,residual activity,PIM3 (human),94.4%
same,residual activity,LIMK1 (human),69.8%
same,residual activity,NTRK1 (human),90.6%
same,residual activity,MAPK8 (human),90.5%
same,residual activity,EPHB3 (human),89.6%
same,residual activity,NEK9 (human),103%
same,residual activity,PTK2B (human),91.2%
same,residual activity,CDK6 CCND3 (human),100%
same,residual activity,FLT1 (human),79%
same,residual activity,BTK (human),87.8%
same,residual activity,MAP3K7 TAB1 (human),98.3%
same,residual activity,CAMK4 (human),102%
same,residual activity,TAOK1 (human),81.6%
same,residual activity,CAMK2D (human),70.9%
same,residual activity,CAMK2B (human),96.3%
same,residual activity,MAP3K14 (human),105%
same,residual activity,CDK9 CCNK (human),83.6%
same,residual activity,STK4 (human),97.1%
same,residual activity,MAPK9 (human),88.4%
same,residual activity,STK33 (human),94.7%
same,residual activity,CDK5 CDK5R1 p25 (human),77.1%
same,residual activity,SYK (human),93.2%
same,residual activity,STK24 (human),99.6%
same,residual activity,CAMKK1 (human),92.9%
same,residual activity,PRKCA (human),98%
same,residual activity,MAP3K8 (human),95.1%
same,residual activity,GRK6 (human),96.4%
same,residual activity,CAMK2A (human),89.9%
same,residual activity,IRAK4 (human),83.5%
same,residual activity,STK39 (human),83.2%
same,residual activity,CAMK1 (human),96.9%
same,residual activity,MLTK (human),96.2%
same,residual activity,KDR (human),82.7%
same,residual activity,MAP4K5 (human),81.6%
same,residual activity,CDK5 CDK5R1 p35 (human),99.8%
same,residual activity,PDGFRA (human),16.4%
same,residual activity,CLK3 (human),88.9%
same,residual activity,MAP2K2 (human),99.3%
same,residual activity,TTK (human),98.3%
Nc1nnc2[nH]c3ccccc3nc1-2,residual activity,DDR2 (human),94.6%
same,residual activity,RPS6KA3 KD1 KD2 (human),88%
same,residual activity,PIM3 (human),94%
same,residual activity,LIMK1 (human),105%
same,residual activity,NTRK1 (human),88.3%
same,residual activity,MAPK8 (human),89.6%
same,residual activity,EPHB3 (human),90.3%
same,residual activity,NEK9 (human),98.5%
same,residual activity,PTK2B (human),92%
same,residual activity,CDK6 CCND3 (human),105%
same,residual activity,FLT1 (human),92.1%
same,residual activity,BTK (human),93.9%
same,residual activity,MAP3K7 TAB1 (human),100%
same,residual activity,CAMK4 (human),104%
same,residual activity,TAOK1 (human),101%
same,residual activity,CAMK2D (human),89.4%
same,residual activity,CAMK2B (human),90%
same,residual activity,MAP3K14 (human),99.2%
same,residual activity,CDK9 CCNK (human),88.3%
same,residual activity,STK4 (human),94.5%
same,residual activity,MAPK9 (human),103%
same,residual activity,STK33 (human),98.7%
same,residual activity,CDK5 CDK5R1 p25 (human),85.4%
same,residual activity,SYK (human),100%
same,residual activity,STK24 (human),89.1%
same,residual activity,CAMKK1 (human),112%
same,residual activity,PRKCA (human),71%
same,residual activity,MAP3K8 (human),81.3%
same,residual activity,GRK6 (human),104%
same,residual activity,CAMK2A (human),99.5%
same,residual activity,IRAK4 (human),94.7%
same,residual activity,STK39 (human),116%
same,residual activity,CAMK1 (human),94.4%
same,residual activity,MLTK (human),96.3%
same,residual activity,KDR (human),95.8%
same,residual activity,MAP4K5 (human),96.8%
same,residual activity,CDK5 CDK5R1 p35 (human),88.7%
same,residual activity,PDGFRA (human),103%
same,residual activity,CLK3 (human),94.3%
same,residual activity,MAP2K2 (human),104%
same,residual activity,TTK (human),102%
COc1cc2ncc(-c3ccccc3)nc2cc1OC,residual activity,DDR2 (human),96.9%
same,residual activity,RPS6KA3 KD1 KD2 (human),101%
same,residual activity,PIM3 (human),87.4%
same,residual activity,LIMK1 (human),77.7%
same,residual activity,NTRK1 (human),93.2%
same,residual activity,MAPK8 (human),102%
same,residual activity,EPHB3 (human),88.6%
same,residual activity,NEK9 (human),93.5%
same,residual activity,PTK2B (human),85.9%
same,residual activity,CDK6 CCND3 (human),93.7%
same,residual activity,FLT1 (human),85%
same,residual activity,BTK (human),98%
same,residual activity,MAP3K7 TAB1 (human),92.8%
same,residual activity,CAMK4 (human),95.2%
same,residual activity,TAOK1 (human),104%
same,residual activity,CAMK2D (human),87.5%
same,residual activity,CAMK2B (human),93.3%
same,residual activity,MAP3K14 (human),115%
same,residual activity,CDK9 CCNK (human),102%
same,residual activity,STK4 (human),96.3%
same,residual activity,MAPK9 (human),93.1%
same,residual activity,STK33 (human),91.7%
same,residual activity,CDK5 CDK5R1 p25 (human),94.6%
same,residual activity,SYK (human),92.5%
same,residual activity,STK24 (human),104%
same,residual activity,CAMKK1 (human),98.9%
same,residual activity,PRKCA (human),103%
same,residual activity,MAP3K8 (human),108%
same,residual activity,GRK6 (human),92.8%
same,residual activity,CAMK2A (human),99.5%
same,residual activity,IRAK4 (human),90.6%
same,residual activity,STK39 (human),88%
same,residual activity,CAMK1 (human),90.4%
same,residual activity,MLTK (human),94.7%
same,residual activity,KDR (human),85.4%
same,residual activity,MAP4K5 (human),99.8%
same,residual activity,CDK5 CDK5R1 p35 (human),95.8%
same,residual activity,PDGFRA (human),83.1%
same,residual activity,CLK3 (human),90.1%
same,residual activity,MAP2K2 (human),102%
same,residual activity,TTK (human),125%
